US5648366A, “Substituted pyrrolidin-3-yl-alkyl-piperidines” (Merrell Pharmaceuticals Inc., priority 1995, dated 1997)

Tests used:
[1] = target: T1, NK1 receptor (Homo sapiens, UniProt P25103); assay: Antagonism of NK1 receptor mediated (SP-induced) phosphatidylinositol turnover in UC11 cells; type: cell-based
T1 construct: endogenous in cells; host or cells: UC11 cells
Method: ANTAGONISM OF NK1 AND NK2 RECEPTOR MEDIATED PHOSPHATID[…]
Tachykinin-mediated inositol phosphate accumulation was measured in UC11 or SKLKB82#3 cells in the presence and absence of NK1 or NK2 receptor antagonists, respectively. Tissues were incubated in Krebs-Henseleit buffer at 37° C. with 95% O2 -5% CO2 gassing. Tissues were then incubated with fresh buffer containing 100 μCi of myo-[2-^3 H(N)] inositol at 37° C. for 60 min with gentle gassing. After washing twice in 5 ml room temperature buffer containing 10 mM LiCl, tissues were incubated for 30 min at room temperature with a buffer change at 15 min. Buffer was removed and Krebs-Henseleit buffer (containing 40 μg/ml bacitracin, 4 μg/ml each of leupeptin and chymostatin, 0.1% bovine serum albumin and 10 mM each of thiorphan and LiCl) added. After 15 min, SP was added to UC11 cells or NKA to SKLKB82#3 cells at various concentrations to start the reaction. After incubation for 60 min at room temperature the reaction was terminated by addition of 930 μl chloroform: methanol (1:2 by volume) to each tube, followed by 310 μl chloroform and 310 μl doubly distilled water. Samples were vortexed, centrifuged, and 0.9 ml of the aqueous (top) phase removed and added to 2 ml ddH2 O. The mixture was vortexed and loaded onto a 50% Bio-Rad AG 1-X8 (formate form, 100-200 mesh) exchange column (Bio-Rad Laboratories, Hercules, Calif.). The columns were washed, in order, with: 1) 10 ml doubly distilled water, 2) 5 ml of 5 mM disodium tetraborate/60 mM sodium formate, and 3) 5 ml of 1M ammonium formate/0.1M formic acid. The third elution was collected and 1 ml counted in 7 ml scintillation fluid. A 50 μl aliquot of the organic (bottom) phase was removed, dried in a scintillation vial and counted in 7 ml scintillation fluid.
The ratio of DPM in the aqueous phase aliquot (total inositol phosphates) to the DPM in the 50 μl organic phase aliquot (total [^3 H]inositol incorporated) was calculated for each sample. Data are expressed as a percent of agonist-induced accumulation of [^3 H]-inositol phosphates over basal levels. The ratios in the presence of test compound and/or standards were compared to the ratios for control samples (i.e. no stimulating agonist). Dose-response graphs were constructed and the abilities of the test compounds to inhibit tachykinin-induced phosphatidyinositol turnover determined with the aid of a computer program. […] Data is expressed as percent stimulation of total inositol phosphate accumulation over basal levels and normalized to the maximum response produced by SP. […] Schild analysis is performed using dose response curves (such as those presented in FIGS. 1a and 1b) to obtain a value indicative of the strength of a competitive antagonist and is expressed as the pA2, which is the negative logarithm of the molar concentration of antagonist which reduces the effect of a dose of agonist to one-half of that expected at the dose of agonist.

[2] = target: T2, human jejunal NK2 receptor (Homo sapiens, UniProt P21452); assay: Antagonism of iodinated tachykinin (125I-neurokinin A) binding to NK2 receptor in HSKR-1 cells
T2 construct: expressed in transfected cells; host or cells: HSKR-1 cells (mouse 3T3 fibroblasts)
T2 sequence (P21452 1-398): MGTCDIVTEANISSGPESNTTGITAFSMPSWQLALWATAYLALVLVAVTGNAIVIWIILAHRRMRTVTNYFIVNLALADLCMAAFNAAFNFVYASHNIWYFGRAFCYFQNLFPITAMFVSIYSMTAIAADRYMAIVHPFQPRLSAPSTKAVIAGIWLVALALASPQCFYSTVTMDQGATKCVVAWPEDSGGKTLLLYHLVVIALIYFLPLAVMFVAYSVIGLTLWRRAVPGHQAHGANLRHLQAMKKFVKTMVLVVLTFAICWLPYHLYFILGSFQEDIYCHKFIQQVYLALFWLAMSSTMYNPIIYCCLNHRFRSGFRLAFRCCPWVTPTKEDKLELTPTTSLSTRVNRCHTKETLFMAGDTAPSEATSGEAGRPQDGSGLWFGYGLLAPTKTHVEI
Method: ANTAGONISM OF IODINATED TACHYKININ BINDING TO NK1 AND NK2 RECEPTORS BY PUTATIVE ANTAGONISTS
The NK1 receptor affinity of proposed tachykinin antagonists was evaluated in guinea pig lungs (Keystone Biologicals, Cleveland, Ohio), affinity for the NK2 receptor evaluated in HSKR-1 cells (which are mouse 3T3 fibroblasts expressing the human jejunal NK2 receptor) and NK-3 receptor affinity was evaluated in freshly collected guinea pig cerebral cortex. Tissues or cells were homogenized with a Polytron in 15 volumes of 50 mM Tris-HCl buffer (pH 7.4, 4° C.) and centrifuged. The pellet was resuspended in Tris-HCl buffer and was centrifuged; the pellet was washed twice by resuspension. The final pellet was resuspended at a concentration of 40 mg/ml for tissues (guinea pig lung and cerebral cortex) and 20 mg/ml for cells in incubation buffer and remained at room temperature for at least 15 min prior to use. […] Filter bound radioactivity was quantitated in a gamma counter. […] Specific binding was calculated by subtracting nonspecific binding from total binding. Competition of iodinated SP, NKA, or eledoisin binding by test compounds or standards was expressed as a percentage of this maximum competition. […]

T1 sequence (P25103 whole entry): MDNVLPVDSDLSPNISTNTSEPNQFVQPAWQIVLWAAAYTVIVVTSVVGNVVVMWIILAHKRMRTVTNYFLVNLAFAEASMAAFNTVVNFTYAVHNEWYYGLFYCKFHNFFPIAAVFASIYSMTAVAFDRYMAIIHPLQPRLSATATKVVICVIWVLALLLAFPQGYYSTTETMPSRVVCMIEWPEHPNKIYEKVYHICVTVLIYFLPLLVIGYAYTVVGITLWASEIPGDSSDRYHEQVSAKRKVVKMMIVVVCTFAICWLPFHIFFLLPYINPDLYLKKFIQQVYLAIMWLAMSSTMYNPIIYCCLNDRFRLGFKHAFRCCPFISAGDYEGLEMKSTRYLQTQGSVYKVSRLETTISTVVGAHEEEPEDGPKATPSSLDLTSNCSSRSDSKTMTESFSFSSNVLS

Q: `COc1cc(C(=O)N2CCC(CCN3CCC(C(N)=O)(c4ccccc4)CC3)(c3ccc(Cl)c(Cl)c3)C2)cc(OC)c1OC` (stereo not drawn) [Example 3, 1-[2-[3-(3,4-dichloro-phenyl)-1-(3,4,5-trimethoxy-benzoyl)-pyrrolidin-3-yl]-ethyl]-4-phenyl-piperidine-4-carboxylic acid amide] was tested. Which “antagonism of SP induced PI turnover (in words, FIG. 1a)” value ([1]; UC11 cells) did it give?
A: Its value is “dose related antagonism”.

Q: What about the “agonist activity, PI turnover in UC11 cells (in words)” value ([1]; compound alone) of the same compound?
A: Its value is “no agonist activity”.

Q: What about the “affinity for NK2 receptors (in words)” value [2] of the same compound?
A: The value was “high affinity”.
